Measured values taken from patent US6994981B2, “Modulators of paraptosis and related methods” (The Buck Institute, priority 2002, dated 2006).
“Also recorded” adds a separate entry of the source.

Key:
[1] = tested on: striatal, cortical, and hippocampal neurons; assay: SP-induced cell death in primary striatal, cortical and hippocampal neurons, trypan blue viability and staining; type: cell-based, rat
Method in brief: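 Rat E17 striatal, cortical or hippocampal neurons, used day 1–7, received SP (0.1 nM–100 μM) 24–48 h after seeding in 2.5% horse serum; co-treatments given with SP, kinase inhibitors 30 min before. Viability measured by trypan blue staining of the total cell population.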

[2] = tested on: fibroblasts; assay: SP toxicity to fibroblasts; type: cell-based; conditions: extracellular SP
[3] = tested on: ERK-1/2; assay: Western blot of ERK-1/2 phosphorylation in 293T cells expressing NK1R; type: cell-based, human; conditions: 293T cells expressing the wild type NK1R, but not NK1Rd342
Experimental: For the transfected 293T cells, cells were washed with cold PBS after incubation with SP the time indicate and homogenized on lysis buffer (150 mM NaCl, 1% Triton X-100, 50 mM Tris HCL pH8.0). Cytoplasmic extracts were collected after 10 min centrifugation at 14,000 rcf. Total amount of protein was quantified by Bradford assay and electrophoresis of equal amounts of total protein was performed on SDS-polyacrylamide gels. Separated proteins were transferred to polyvinylidene fluoride membranes at 4° C. for Western blot analysis. Membranes were probed with a 1:1000 dilution of anti-ERK-1/2 or anti phospho-ERK-1/2 (BioSource). The blots were incubated in a horseradish peroxidase coupled secondary antibody for 1 h followed by enhanced chemiluminescence detection of the proteins with […]™ ECL detection (Amersham, Arlington Heights, Ill.). For striatal neurons, total ERK-1/2 was immunoprecipitated using superparamagnetic Microbeads conjugated to protein A, following manufacture's instructions (MACS, Miltenyi Biotec), and then developed by Western blot against either anti-ERK-1/2 or anti phospho-ERK-1/2.

Substance: SP: eleven amino acid neurotransmitter of the tachykinin family, ligand of NK1R
- sensitivity of neurons to SP ([1]; 48 hours after exposure): sensitive to micromolar concentrations
- effect of SP isomer on neuronal cell death ([1]; L or D isomer): induced cell death
- sensitivity of neurons to SP ([1]; seven days after exposure, SP added only once): sensitive to nanomolar concentrations
- toxicity to fibroblasts [2]: resistant to micromolar concentrations; also recorded: not toxic
- activation of ERK-1/2 by SP [3]: activation of ERK-1/2
